Test results taken from patent US20170205395A1, “METHODS FOR PROVIDING PERSONALIZED MEDICINE TEST EX VIVO FOR HEMATOLOGICAL NEOPLASMS” (priority 2009, published 2017).
Where two headings read alike, the source gives them in different places.

Columns and labels:
malignant CLL cells = type: cell-based; settings: for ability of SSRIs to induce apoptosis in malignant CLL cells: FIG. 9; for ex vivo efficacy in killing malignant cells compared with approved cytotoxic drugs: CLL ex vivo samples, FIG. 6; for ex vivo patient response: 30 μM; for induction of apoptosis after 24 hours: CLL whole blood samples, 24 hours incubation, FIG. 8
[1] = tested on: patients with Chronic Lymphocytic Leukemia; settings: cited from earlier work
T and NK cells = assay: Ex vivo Annexin V flow cytometry apoptosis assay in CLL whole blood, non-malignant cells; type: cell-based, human; settings: approximately 30 μM, whole blood sample from a CLL patient, FIG. 7
MOLT-4 cells = assay: Apoptosis ELISA (one step sandwich ELISA of histone-complexed DNA fragments); type: cell-based, human; settings: 24 hours, FIG. 20
Description: The one step sandwich ELISA is based in the quantification of histone-complexed DNA fragments (mono- and oligonucleosomes) out of the cytoplasm of cells after the induction of apoptosis or when released from necrotic cells.

[2] = tested on: active caspase-3 in MOLT-4 cells; assay: Active caspase-3 determination by Western blot; type: cell-based, human; settings: 24 hours, FIG. 21
Method: Caspase-3 activation was determined using a Western blot of extracts from two acute lymphoblastic cell lines (TOM-1 and MOLT-4) exposed to increased concentrations of sertraline. […] Active caspase-3 is a protease that serves as a marker of apoptosis.

[3] = CLL sample, maximum concentrations, cyclophosphamide tested as its metabolite maphosphamide, FIG. 22

COCCCC/C(=N\OCCN)c1ccc(C(F)(F)F)cc1 [fluvoxamine]
ability of SSRIs to induce apoptosis in malignant CLL cells (malignant CLL cells): only 3 (paroxetine, fluoxetine, and sertraline) induce apoptosis similarly

COc1ccc2[nH]c([S+]([O-])Cc3ncc(C)c(OC)c3C)nc2c1 (centres unmarked) [omeprazole]
apoptotic rate (Annexin V positive cells) compared with cytotoxic agents (malignant CLL cells; sample of one CLL patient, FIG. 12): showed similar apoptotic rates as the cytotoxic agents

rituximab: antibody approved for CLL treatment
ex vivo efficacy (resistant / sensitive) (malignant CLL cells; [3]): resistant

O=P1(N(CCCl)CCCl)NCCCO1 (centres unmarked) [cyclophosphamide]
ex vivo efficacy (resistant / sensitive) (malignant CLL cells): resistant

N=C(N)N/N=C/c1c(Cl)cccc1Cl [guanabenz]
ex vivo efficacy in killing malignant cells compared with approved cytotoxic drugs (malignant CLL cells): ex vivo efficacy similar to that of the approved cytotoxic drugs

COc1cccc2c1C(=O)c1c(O)c3c(c(O)c1C2=O)C[C@@](O)(C(=O)CO)C[C@@H]3O[C@H]1C[C@H](N)[C@H](O)[C@H](C)O1 [doxorubicin]
ex vivo patient response (malignant CLL cells; the two patients denoted by a star, FIG. 4): very effective

O=C(O)CCCc1ccc(N(CCCl)CCCl)cc1 [chlorambucil]
induction of apoptosis by the drug alone (malignant CLL cells; CLL patient sample, low concentrations, lower curve of FIG. 11): did not induce much apoptosis | induction of apoptosis after 24 hours (malignant CLL cells): ~45% | % of patients responding ([1]; CLL patients with ITRT result DI (Drug Intermediate)): 66.3 (92) % | % of patients responding ([1]; CLL patients with ITRT result DR (Drug Resistant)): 37.6 (24) % | % of patients responding ([1]; CLL patients with ITRT result DS (Drug Sensitive)): 85.1 (94) % | % of patients responding ([1]; all CLL patients (Total)): 71.5 (210) %

Fc1ccc([C@@H]2CCNC[C@H]2COc2ccc3c(c2)OCO3)cc1 [paroxetine]
ex vivo efficacy in killing malignant cells compared with approved cytotoxic drugs (malignant CLL cells): ex vivo efficacy similar to that of the approved cytotoxic drugs | ability of SSRIs to induce apoptosis in malignant CLL cells (malignant CLL cells): induce apoptosis similarly to clinically approved cytotoxic drugs | apoptosis in leukemic cells (malignant CLL cells; approximately 30 μM, whole blood sample from a CLL patient, FIG. 7): ~100% | apoptosis in T and NK cells (T and NK cells): 15%

CN[C@H]1CC[C@@H](c2ccc(Cl)c(Cl)c2)c2ccccc21 [sertraline]
increase of the Apoptosis Index (MOLT-4 cells): up to 7 fold | induction of active caspase-3 [2]: dramatically induced active caspase-3 | ex vivo efficacy in killing malignant cells compared with approved cytotoxic drugs (malignant CLL cells): ex vivo efficacy similar to that of the approved cytotoxic drugs | potentiation of chlorambucil-induced apoptosis (malignant CLL cells; CLL patient sample, sub-maximal dose of sertraline added to chlorambucil, upper curve of FIG. 11): greatly enhanced the level of apoptosis | time to eliminate all malignant cells (malignant CLL cells; CLL sample, FIG. 28): ≤ 24 h | incubation with the sample required to induce maximal apoptosis (malignant CLL cells; CLL sample, drug washed away, apoptosis measured at 24 or 48 hours, FIG. 28): 30 min | induction of apoptosis after 24 hours (malignant CLL cells): more than 90% | ability of SSRIs to induce apoptosis in malignant CLL cells (malignant CLL cells): induce apoptosis similarly to clinically approved cytotoxic drugs

CN(C)C/C=C(/c1ccc(Br)cc1)c1cccnc1 [zimelidine]
ability of SSRIs to induce apoptosis in malignant CLL cells (malignant CLL cells): only 3 (paroxetine, fluoxetine, and sertraline) induce apoptosis similarly

O=C1c2c(O)ccc(O)c2C(=O)c2c(NCCNCCO)ccc(NCCNCCO)c21 [mitoxantrone]
ex vivo patient response (malignant CLL cells; patients P1.0105, P2.0019 and P2.035, FIG. 4): extreme resistance ex vivo | ex vivo efficacy (resistant / sensitive) (malignant CLL cells; [3]): resistant | induction of apoptosis after 24 hours (malignant CLL cells): ~50%

Nc1nc(F)nc2c1ncn2[C@@H]1O[C@H](CO)[C@@H](O)[C@@H]1O [fludarabine]
induction of apoptosis after 24 hours (malignant CLL cells): approximately 40%

COc1ccc(CCN2CCC(Nc3nc4ccccc4n3Cc3ccc(F)cc3)CC2)cc1 [astemizole]
ex vivo efficacy in killing malignant cells compared with approved cytotoxic drugs (malignant CLL cells): ex vivo efficacy similar to that of the approved cytotoxic drugs

CNCCC(Oc1ccc(C(F)(F)F)cc1)c1ccccc1 (centres unmarked) [fluoxetine]
ex vivo efficacy in killing malignant cells compared with approved cytotoxic drugs (malignant CLL cells): ex vivo efficacy similar to that of the approved cytotoxic drugs | ability of SSRIs to induce apoptosis in malignant CLL cells (malignant CLL cells): induce apoptosis similarly to clinically approved cytotoxic drugs
